Several values for one entry are separate records, joined by “and”; a condition that tells them apart may be missing. Equal values may be shown once.
Legend:
AB5075 [1] = assay: Checkerboard assay for FIC determination with colistin; format: cell-based, Acinetobacter baumannii; conditions: chequerboard, ΣFIC≥2 considered antagonistic
Description: Against AB5075, we determined that the ΣFIC with compound 1 to be 17 and the ΣFIC with compound 10 to be 33. These ΣFIC values indicate that both compounds are highly antagonistic with colistin as a ΣFIC≥2 is considered antagonistic.
Day Cultures (6 h) of A. baumannii 5075 were subcultured to 5×10^5 CFU/mL in cation adjusted Mueller-Hinton broth (CAMHB). 100 μL of the inoculated media was distributed into all wells of a 96-well plate except well 1A. Inoculated CAMHB (200 μL) containing compound (twice the highest concentration tested) was added to well 1A, and 100 μL of the same sample was added to wells 2A-12A. The contents in column A were mixed five times before 100 μL was transferred to column B. The contents of column B were mixed 5 times before transferring to column C. This process was repeated with the remainder of the columns up to column G. Column H was not mixed to allow determination of the antibiotic MIC alone. […] Row 12 was not mixed so that the MIC of the compound alone could be determined. The MICs of both compound and antibiotic alone were recorded, as well as the wells containing the combination. The ΣFICs were calculated as follows: ΣFIC=FIC (Compound)+FIC (antibiotic), where FIC (compound) is the MIC of the compound in the combination/MIC of the compound alone and the FIC (antibiotic) is the MIC of the antibiotic in combination/the MIC of the antibiotic alone. […]

AB5075 [2] = assay: H33342 accumulation assay (efflux); format: cell-based, Acinetobacter baumannii
Description: In addition to the evaluation of the relationship between compounds 1 and 4 and colistin, the impact of compound 1 on efflux was evaluated using AB5075 and a bisBenzimide H33342 trihydrochloride (H33342) accumulation assay. Using a procedure adapted from Coldham et al. (A 96-well plate fluorescence assay for assessment of cellular permeability and active efflux in Salmonella enterica serovar Typhimurium and Escherichia coli. J Antimicrob Chemother, 2010. 65(8): p. 1655-63) and Richmond et al. (Efflux in Acinetobacter baumannii can be determined by measuring accumulation of H33342 (bis-benzamide). J Antimicrob Chemother, 2013. 68(7): p. 1594-600), the effect of no treatment, a known inhibitor carbonyl cyanide-m-chlorophenyl hydrazone (CCCP), and compound 1 on efflux was analyzed over 30 minutes and in two different treatment variations. Fluorescence was read using excitation and emission filters of 355 and 460 nm, and the values were processed in excel. The first analysis was performed immediately after treating the bacteria with compound 1 at both 10 and 30 μM and CCCP at 25 μM.
The second analysis was performed after exposing the bacteria to compound 1 at 30 μM for 5-hours shaking at 37° C.

[3] = system: A. baumannii mutant AB522; assay: Dose dependent resistance suppression (antibiotic MIC with compound) in AB522; format: cell-based, Acinetobacter baumannii
Description: There was no notable reduction in antibiotic MIC observed with either compound and both strains 522 and 1310. […] Even at the highest concentration, no potentiation was observed.
Day Cultures (6 h) were subcultured to 5×10^5 CFU/mL in cation adjusted Mueller-Hinton broth (CAMHB). […] One milliliter of the resulting solution was aliquoted into a separate culture tube and was dosed with antibiotic so that the resulting concentration was the highest desirable concentration to be tested. Bacteria treated with antibiotic alone were used as a control. Row one of a 96-well plate was filled with 200 μL of the antibiotic/compound solution, and the remaining rows were filled with 100 μL of the remaining 4 mL bacterial subculture. The wells in row one were mixed five times before 100 μL was transferred to the following row (row two). Row two was then mixed five times, and 100 μL was transferred to row three. This process was repeated until the second to last row had been reached. The last row is left unexposed to antibiotic in order to serve as a negative control. The antibiotic only treated bacteria was plated by aliquoting 200 μL of the treated bacteria into row one and filling the remaining rows with untreated bacteria from the original bacteria subculture. The rows were mixed in the same way as described above. Plates were covered with Glad Press n'Seal and were incubated under stationary conditions at 37° C. for 16 hours. MIC values were recorded as the lowest concentration at which no bacterial growth was observed. Fold reductions were determined by comparison of the compound treated wells with the antibiotic only treated control wells.

AB5075 [4] = assay: G. mellonella model infected with AB5075, survival; format: in vivo, Galleria mellonella
Description: Galleria mellonella larvae (Speedy Worm, Alexandria, Minn.) were used within ten days of shipment from the vendor. After reception of worms, larvae were kept in the dark at room temperature for at least 24 h before infection. Larvae weighing between 200 to 300 mg were used in the survival assay. Using a 10 μL glass syringe (Hamilton, Reno, Nev.) fitted with a 30 G needle (Exel International, St. Petersburg, Fl), 5 μL of the desired compound and concentration were injected into the last left proleg. After 2.5 h, a second 5 μL injection containing 6×10^5 CFU of Acinetobacter baumannii 5075 was injected into the second to last left proleg. Injected worms were left at room temperature in the dark while being assessed at 24 h intervals over 6 days. […] Experiment was repeated 7 times using 10 larvae per experimental group.

## Nc1nc(-c2ccc(NC(=O)c3cc(Cl)cc(Cl)c3)cc2)c[nH]1 [Compound 1]
AB5075 [1]
  ΣFIC with colistin: 17
AB5075 [2]; 10 μM compound, immediately following exposure, time 0 minutes
  H33342 accumulation, fluorescence at 355 and 460 nm: 14,084.3 ± 2,839.3
AB5075 [2]; 10 μM compound, immediately following exposure, time 10 minutes
  H33342 accumulation, fluorescence at 355 and 460 nm: 12,812.4 ± 2,718.2
AB5075 [2]; 10 μM compound, immediately following exposure, time 20 minutes
  H33342 accumulation, fluorescence at 355 and 460 nm: 11,627.8 ± 3,119
AB5075 [2]; 10 μM compound, immediately following exposure, time 30 minutes
  H33342 accumulation, fluorescence at 355 and 460 nm: 12,147.8 ± 2,742.8
AB5075 [2]; 30 μM compound, following exposure for 5 hours, time 0 minutes
  H33342 accumulation, fluorescence at 355 and 460 nm: 12,226.7 ± 4,671.7
AB5075 [2]; 30 μM compound, following exposure for 5 hours, time 10 minutes
  H33342 accumulation, fluorescence at 355 and 460 nm: 15,247 ± 5,499.3
AB5075 [2]; 30 μM compound, following exposure for 5 hours, time 20 minutes
  H33342 accumulation, fluorescence at 355 and 460 nm: 25,603.1 ± 5,212.9
AB5075 [2]; 30 μM compound, following exposure for 5 hours, time 30 minutes
  H33342 accumulation, fluorescence at 355 and 460 nm: 33,441.1 ± 3,260.3
AB5075 [2]; 30 μM compound, immediately following exposure, time 0 minutes
  H33342 accumulation, fluorescence at 355 and 460 nm: 21,152.2 ± 5,161.7
AB5075 [2]; 30 μM compound, immediately following exposure, time 10 minutes
  H33342 accumulation, fluorescence at 355 and 460 nm: 21,651 ± 8,731.7
AB5075 [2]; 30 μM compound, immediately following exposure, time 20 minutes
  H33342 accumulation, fluorescence at 355 and 460 nm: 19,748.3 ± 9,182.4
AB5075 [2]; 30 μM compound, immediately following exposure, time 30 minutes
  H33342 accumulation, fluorescence at 355 and 460 nm: 19,562.4 ± 9,574
AB5075 [2]; after exposure to compound at 30 μM for 5 hours
  H33342 fluorescence versus untreated: comparable fluorescence values
AB5075 [2]; immediately after treating, compound 1 at both 10 and 30 μM, CCCP at 25 μM
  change in H33342 fluorescence over 30 minutes: a decrease in fluorescence
[3]; compound Conc. Tested 2 (μM)
  Azithromycin MIC: 8 µg/mL and 4 µg/mL
  Clarithromycin MIC: 1 µg/mL
  Erythromycin MIC: 2 µg/mL
  Vancomycin MIC: 64 µg/mL
[3]; compound Conc. Tested 3 (μM)
  Azithromycin MIC: 4 µg/mL and 8 µg/mL
  Clarithromycin MIC: 1 µg/mL
  Erythromycin MIC: 2 µg/mL and 4 µg/mL
  Vancomycin MIC: 64 µg/mL
[3]; compound Conc. Tested 4 (μM)
  Azithromycin MIC: 4 µg/mL
  Clarithromycin MIC: 1 µg/mL
  Erythromycin MIC: 4 µg/mL and 2 µg/mL
  Vancomycin MIC: 32 µg/mL
[3]; compound Conc. Tested 5 (μM)
  Azithromycin MIC: 4 µg/mL
  Clarithromycin MIC: 0.5 µg/mL
  Erythromycin MIC: 2 µg/mL
  Vancomycin MIC: 32 µg/mL
AB5075 [4]; combination treatment of clarithromycin (25 mg/kg) and compound 1 (100 mg/kg)
  survival rate after 6 days: 42%
AB5075 [4]; compound 1 alone at 100 mg/kg
  survival after 6 days: 5%
